Data: PubChem BioAssay AID248 (DTP/NCI, 2004)
Inconclusive results and toxic doses are left out. Cut-off read from the data, not from the text of the source: active = T/C of 150% or more; inactive = T/C below 125%.

System: L1210 leukemia ip in BDF1 mice, survival T/C
Experiment: NCI In Vivo Anticancer Drug Screen. Data for tumor model L1210 Leukemia (intraperitoneal) in B6D2F1 (BDF1) mice
Details: endpoint: mean survival time, higher = longer survival
Procedure, shortened: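 Each compound was tested against a transplantable tumor grown in mice. The endpoint was survival, with treated animals benchmarked against vehicle controls as a simple ratio.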

[1] = dose: 100.0 mg/kg/injection, schedule: Q01DX001 (ip), vehicle: Klucel (hydroxypropylcellulose) (HPC)
[2] = dose: 100.0 mg/kg/injection, schedule: Q04DX003 (ip), vehicle: Klucel (hydroxypropylcellulose) (HPC)
[3] = dose: 200.0 mg/kg/injection, schedule: Q01DX001 (ip), vehicle: Klucel (hydroxypropylcellulose) (HPC)
[4] = dose: 200.0 mg/kg/injection, schedule: Q04DX003 (ip), vehicle: Klucel (hydroxypropylcellulose) (HPC)
[5] = dose: 400.0 mg/kg/injection, schedule: Q01DX001 (ip), vehicle: Klucel (hydroxypropylcellulose) (HPC)
[6] = dose: 400.0 mg/kg/injection, schedule: Q04DX003 (ip), vehicle: Klucel (hydroxypropylcellulose) (HPC)
[7] = dose: 100.0 mg/kg/injection, schedule: Q01DX001 (ip), vehicle: saline
[8] = dose: 200.0 mg/kg/injection, schedule: Q01DX001 (ip), vehicle: saline
[9] = dose: 400.0 mg/kg/injection, schedule: Q01DX001 (ip), vehicle: saline

Measured: T/C

O=C(CCl)NC(O)C(Cl)(Cl)Cl (stereo not given)
inactive: dose: 1.8 mg/kg/injection, schedule: Q01DX009 (ip), vehicle: saline with Tween-80 100 % of control | dose: 3.7 mg/kg/injection, schedule: Q01DX009 (ip), vehicle: saline with Tween-80 98 % of control | dose: 7.5 mg/kg/injection, schedule: Q01DX009 (ip), vehicle: saline with Tween-80 102 % of control | dose: 75.0 mg/kg/injection, schedule: Q04DX003 (ip), vehicle: saline 101 % of control | dose: 150.0 mg/kg/injection, schedule: Q04DX003 (ip), vehicle: saline 101 % of control | dose: 300.0 mg/kg/injection, schedule: Q04DX003 (ip), vehicle: saline 87 % of control

CCCCCCCCCCC(=O)CCCCCC
inactive: dose: 100.0 mg/kg/injection, schedule: Q01DX009 (ip), vehicle: other 98 % of control | dose: 200.0 mg/kg/injection, schedule: Q01DX009 (ip), vehicle: other 100 % of control | dose: 400.0 mg/kg/injection, schedule: Q01DX009 (ip), vehicle: other 107 % of control

COc1ccc2c(c1)/C(=C/CCN(C)C)c1ccccc1S2
inactive: dose: 6.0 mg/kg/injection, schedule: Q01DX Z (ip), vehicle: methylcellulose (MC) 110 % of control | dose: 6.25 mg/kg/injection, schedule: Q01DX009 (ip), vehicle: carboxymethylcellulose (CMC) 97 % of control | dose: 12.0 mg/kg/injection, schedule: Q01DX Z (ip), vehicle: methylcellulose (MC) 114 % of control | dose: 12.5 mg/kg/injection, schedule: Q01DX001 (ip), vehicle: carboxymethylcellulose (CMC) 100 % of control | dose: 12.5 mg/kg/injection, schedule: Q01DX009 (ip), vehicle: carboxymethylcellulose (CMC) 108 % of control | dose: 12.5 mg/kg/injection, schedule: Q04DX003 (ip), vehicle: other 105 % of control | dose: 15.0 mg/kg/injection, schedule: Q01DX Z (ip), vehicle: methylcellulose (MC) 104 % of control | dose: 20.0 mg/kg/injection, schedule: Q01DX Z (ip), vehicle: methylcellulose (MC) 119 % of control | dose: 25.0 mg/kg/injection, schedule: Q01DX001 (ip), vehicle: carboxymethylcellulose (CMC) 100 % of control | dose: 25.0 mg/kg/injection, schedule: Q04DX003 (ip), vehicle: other 101 % of control | dose: 50.0 mg/kg/injection, schedule: Q01DX001 (ip), vehicle: carboxymethylcellulose (CMC) 114 % of control

CC(C)NC(=O)c1ccccc1
inactive: [1] 96 % of control | [2] 96 % of control | [3] 98 % of control | [4] 103 % of control | [5] 101 % of control | [6] 101 % of control

CN=C(NC)c1ccc(NC(=O)Nc2ccc(C)c(NC(=O)Nc3ccc(C(=NC)NC)cc3)c2)cc1
inactive: dose: 4.5 mg/kg/injection, schedule: Q01DX Z (ip), vehicle: water 98 % of control | dose: 9.0 mg/kg/injection, schedule: Q01DX Z (ip), vehicle: water 98 % of control | dose: 18.0 mg/kg/injection, schedule: Q01DX Z (ip), vehicle: water 98 % of control

COc1ccc(CCC(C)=O)cc1
inactive: dose: 100.0 mg/kg/injection, schedule: Q01DX009 (ip), vehicle: Klucel (hydroxypropylcellulose) (HPC) 96 % of control | [2] 89 % of control | dose: 200.0 mg/kg/injection, schedule: Q01DX009 (ip), vehicle: Klucel (hydroxypropylcellulose) (HPC) 105 % of control | [4] 102 % of control | dose: 400.0 mg/kg/injection, schedule: Q01DX009 (ip), vehicle: Klucel (hydroxypropylcellulose) (HPC) 96 % of control | [6] 98 % of control

Cc1cc(C)n2nc(N)nc2n1
inactive: dose: 100.0 mg/kg/injection, schedule: Q01DX001 (ip), vehicle: carboxymethylcellulose (CMC) 101 % of control | dose: 200.0 mg/kg/injection, schedule: Q01DX001 (ip), vehicle: carboxymethylcellulose (CMC) 95 % of control | dose: 400.0 mg/kg/injection, schedule: Q01DX001 (ip), vehicle: carboxymethylcellulose (CMC) 95 % of control

CCCC#CC(=O)OCCCCC
inactive: dose: 100.0 mg/kg/injection, schedule: Q04DX002 (ip), vehicle: saline 108 % of control | dose: 200.0 mg/kg/injection, schedule: Q04DX002 (ip), vehicle: saline 94 % of control | dose: 400.0 mg/kg/injection, schedule: Q04DX002 (ip), vehicle: saline 105 % of control

c1ccc(C2=Nc3ccccc3-c3ccccc3N2)cc1
inactive: dose: 100.0 mg/kg/injection, schedule: Q01DX001 (ip), vehicle: saline with Tween-80 100 % of control | dose: 200.0 mg/kg/injection, schedule: Q01DX001 (ip), vehicle: saline with Tween-80 103 % of control | dose: 400.0 mg/kg/injection, schedule: Q01DX001 (ip), vehicle: saline with Tween-80 106 % of control

NCCCCC(N)C(=O)O (stereo not given)
inactive: [1] 115 % of control | [7] 94 % of control | [3] 100 % of control | [8] 97 % of control | [5] 86 % of control | [9] 94 % of control

CCOP(=O)(OCC)Oc1ccc([N+](=O)[O-])c(CC)c1
inactive: dose: 5.0 mg/kg/injection, schedule: Q01DX001 (ip), vehicle: saline 100 % of control | dose: 10.0 mg/kg/injection, schedule: Q01DX001 (ip), vehicle: saline 100 % of control

CCC(C)C(CN)(CCCN1CCCC1)c1cccc2ccccc12 (stereo not given)
inactive: dose: 100.0 mg/kg/injection, schedule: Q04DX003 (ip), vehicle: saline with Tween-80 92 % of control | dose: 200.0 mg/kg/injection, schedule: Q04DX003 (ip), vehicle: saline with Tween-80 89 % of control | dose: 400.0 mg/kg/injection, schedule: Q04DX003 (ip), vehicle: saline with Tween-80 101 % of control

Cc1ccc(S(=O)(=O)N2CCN(C)CC2)cc1
inactive: [7] 103 % of control | [8] 97 % of control | [9] 97 % of control

CC(C)C(=O)Nc1cccc(Cl)c1
inactive: dose: 100.0 mg/kg/injection, schedule: Q01DX009 (ip), vehicle: saline with Tween-80 95 % of control | dose: 200.0 mg/kg/injection, schedule: Q01DX009 (ip), vehicle: saline with Tween-80 95 % of control | dose: 400.0 mg/kg/injection, schedule: Q01DX009 (ip), vehicle: saline with Tween-80 101 % of control

CNC(=O)c1cc(NC(=O)Nc2cccc(C3=NCCN3)c2)cc(NC(=O)Nc2cccc(C3=NCCN3)c2)c1
inactive: dose: 15.0 mg/kg/injection, schedule: Q01DX Z (ip), vehicle: saline 114 % of control | dose: 30.0 mg/kg/injection, schedule: Q01DX Z (oral), vehicle: saline 103 % of control | dose: 60.0 mg/kg/injection, schedule: Q01DX Z (ip), vehicle: saline 120 % of control | dose: 60.0 mg/kg/injection, schedule: Q01DX Z (oral), vehicle: saline 119 % of control | dose: 120.0 mg/kg/injection, schedule: Q01DX Z (oral), vehicle: saline 101 % of control | dose: 240.0 mg/kg/injection, schedule: Q01DX Z (oral), vehicle: saline 95 % of control

CC1=C2C(=CC(C)(C)[C@@H]2O)C(=O)[C@](C)(O)C12CC2
inactive: dose: 75.0 micrograms/kg/injection, schedule: Q01DX Z (ip), vehicle: saline 98 % of control | dose: 150.0 micrograms/kg/injection, schedule: Q01DX Z (ip), vehicle: saline 104 % of control | dose: 300.0 micrograms/kg/injection, schedule: Q01DX Z (ip), vehicle: saline 106 % of control | dose: 600.0 micrograms/kg/injection, schedule: Q01DX Z (ip), vehicle: saline 106 % of control

COC1(OC)C2(Cl)C3C(=O)C4C5C(=O)C3C1(Cl)C5(Cl)C42Cl (stereo not given)
inactive: [7] 105 % of control | [8] 94 % of control | [9] 89 % of control

CC(=O)Nc1cccc2nsnc12
inactive: [2] 100 % of control | [4] 93 % of control

O=C(c1ccccc1)c1ccco1
inactive: dose: 50.0 mg/kg/injection, schedule: Q01DX009 (ip), vehicle: saline 102 % of control | dose: 100.0 mg/kg/injection, schedule: Q01DX009 (ip), vehicle: saline 91 % of control | dose: 200.0 mg/kg/injection, schedule: Q01DX009 (ip), vehicle: saline 93 % of control

CCCNC(=O)Oc1ccc(Nc2ccccc2)cc1
inactive: dose: 100.0 mg/kg/injection, schedule: Q04DX002 (ip), vehicle: Klucel (hydroxypropylcellulose) (HPC) 118 % of control | dose: 200.0 mg/kg/injection, schedule: Q04DX002 (ip), vehicle: Klucel (hydroxypropylcellulose) (HPC) 103 % of control | dose: 400.0 mg/kg/injection, schedule: Q04DX002 (ip), vehicle: Klucel (hydroxypropylcellulose) (HPC) 107 % of control

O=C(NCc1ccccc1)c1ccc(Cl)cc1
inactive: dose: 100.0 mg/kg/injection, schedule: Q04DX003 (ip), vehicle: saline 97 % of control | dose: 200.0 mg/kg/injection, schedule: Q04DX003 (ip), vehicle: saline 97 % of control | dose: 400.0 mg/kg/injection, schedule: Q04DX003 (ip), vehicle: saline 95 % of control
